Assay results reported in article PMC10281575, “PfCRT mutations conferring piperaquine resistance in falciparum malaria shape the kinetics of quinoline drug binding and transport” (PLOS Pathogens, 2023).
Where “and” joins values, the source holds several entries; their conditions need not be identical. Equal values may be shown once.

How the values were obtained:
[1] = target: T1, PfCRT^Dd2_S257A (Plasmodium falciparum, UniProt Q8IBZ9, A220S/I356T/K76T/M74I/N326S/N75E/Q271E/R371I/S257A); experiment: PfCRT-mediated CQ transport in oocytes expressing PfCRT^Dd2_S257A; assay type: cell-based; conditions: S6 Fig; per biological replicate
T1 construct: expressed in transfected cells; host or cells: Xenopus laevis oocytes
T1 sequence (Q8IBZ9 1-424 M74I/N75E/K76T/A220S/S257A/Q271E/N326S/I356T/R371I): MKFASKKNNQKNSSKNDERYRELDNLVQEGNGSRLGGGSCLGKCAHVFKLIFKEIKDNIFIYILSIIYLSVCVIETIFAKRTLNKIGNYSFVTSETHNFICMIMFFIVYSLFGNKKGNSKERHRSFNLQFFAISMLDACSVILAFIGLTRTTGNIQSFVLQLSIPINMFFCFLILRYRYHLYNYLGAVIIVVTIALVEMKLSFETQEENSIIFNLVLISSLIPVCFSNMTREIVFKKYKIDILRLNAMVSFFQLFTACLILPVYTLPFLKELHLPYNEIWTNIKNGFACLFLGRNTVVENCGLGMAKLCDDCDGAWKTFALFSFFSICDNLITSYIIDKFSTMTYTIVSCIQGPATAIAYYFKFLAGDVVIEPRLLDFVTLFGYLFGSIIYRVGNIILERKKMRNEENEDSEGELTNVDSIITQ
From the text: The docking results reflect the differences in the experimentally measured affinities of the two compounds for PfCRT^Dd2, with CQ having less favorable docking scores compared to PPQ (S1 Table). […] In this pose, CQ forms polar contacts via the two positively charged nitrogens: the nitrogen of the diethylamino tail makes a salt bridge with E75 on TM1 and the nitrogen of the 4-amminoquinoline ring makes a hydrogen bond with S257 on TM7. Hydrophobic contacts are established by the quinoline ring with I260, V141, and F145.
Drug transport assays were performed as previously described. Briefly, measurements of radiolabeled drug uptake were made over 1 h, unless otherwise specified. […] Where specified, one or more unlabeled drugs were also present at the indicated concentrations. […] The radioactivity in the sample was measured using a liquid scintillation analyser Tri-Carb 4910 TR (PerkinElmer). Water-injected oocytes were analyzed in parallel as a negative control. The buffer from each condition was measured in duplicate in parallel to each experiment to transform counts per minute into pmol of drug. Drug uptake attributable to PfCRT was determined by subtracting the background uptake from water-injected oocytes from that of PfCRT-expressing oocytes. […]

[2] = tested on: Dd2^3D7crt parasites; design: method as in Okombo et al. (2022); conditions: ref Okombo et al. (2022); cited from earlier work

| Structure (SMILES) | PfCRTDd2_S257A-mediated CQ transport [1] | drug accumulation ratio [2] [fold] |
| --- | --- | --- |
| CCN(CC)CCCC(C)Nc1ccnc2cc(Cl)ccc12 (centres unmarked) [CQ, chloroquine] | 1.610 pmol oocyte-1 h-1 and 1.360 pmol oocyte-1 h-1 and 1.980 pmol oocyte-1 h-1 | – |
| Clc1ccc2c(N3CCN(CCCN4CCN(c5ccnc6cc(Cl)ccc56)CC4)CC3)ccnc2c1 [PPQ, piperaquine] | – | 2000 |
